Results published in patent US12402624B2, “Polymorphs of mesotrione metal chelate and preparation process” (priority 2017, dated 2025).

Experiment: Particle size distribution (D50, D90) of the polymorph
Assay type: physicochemical
Conditions: for Particle size D(0.9): D90; for Particle size D(0.5): median diameter D50
[1] = listed as Mesotrione copper chelate form II-a
[2] = listed as Mesotrione copper chelate form II-b
[3] = listed as Mesotrione copper chelate form I-a
[4] = listed as Mesotrione copper chelate form I-b

| Substance | Particle size D(0.9) [1] [μm] | Particle size D(0.9) [2] [μm] | Particle size D(0.5) [1] [μm] | Particle size D(0.5) [2] [μm] | Particle size D(0.9) [3] [μm] | Particle size D(0.9) [4] [μm] | Particle size D(0.5) [3] [μm] | Particle size D(0.5) [4] [μm] |
| --- | --- | --- | --- | --- | --- | --- | --- | --- |
| mesotrione copper chelate [Mesotrione copper chelate form II] | 34.08 | 27.33 | 17.58 | 16.74 |  |  |  |  |
| mesotrione copper chelate [Mesotrione copper chelate form I] |  |  |  |  | 13.02 | 13.22 | 7.94 | 7.62 |
